Key:
[1] = target: Nociceptin receptor (Homo sapiens) (UniProt P41146); experiment: Displacement of [3H]Nociceptin from human recombinant ORL1 receptor expressed in HEK293 cells at 1 uM; assay type: cell-based
[2] = target: Thromboxane A2 receptor (Homo sapiens) (UniProt P21731); experiment: Displacement of [3H]SQ29548 from human recombinant TP receptor expressed in HEK293 cells at 1 uM; assay type: cell-based
[3] = target: Histamine H2 receptor (Homo sapiens) (UniProt P25021); experiment: Displacement of [125I]APT from human recombinant H2 receptor expressed in CHO cells at 1 uM; assay type: cell-based
[4] = target: 5-hydroxytryptamine receptor 5A (Homo sapiens) (UniProt P47898); experiment: Displacement of [3H]LSD from human recombinant 5-HT5A receptor expressed in CHO cells at 1 uM; assay type: cell-based
[5] = target: Muscarinic acetylcholine receptor M3 (Homo sapiens) (UniProt P20309); experiment: Displacement of [3H]4-DAMP from human recombinant muscarinic M3 receptor expressed in CHO cells at 1 uM; assay type: cell-based
[6] = target: Adenosine receptor A3 (Homo sapiens) (UniProt P0DMS8); experiment: Displacement of [3H]AB-MECA from human recombinant adenosine A3 receptor expressed in HEK293 cells at 1 uM; assay type: cell-based
[7] = target: 5-hydroxytryptamine receptor 2B (Homo sapiens) (UniProt P41595); experiment: Displacement of [125I](+/-)DOI from human recombinant 5-HT2B receptor expressed in CHO cells at 1 uM; assay type: cell-based
[8] = target: Cannabinoid receptor 1 (Homo sapiens) (UniProt P21554); experiment: Displacement of [3H]CP55940 from human recombinant CB1 receptor expressed in CHO cells at 1 uM; assay type: cell-based
[9] = target: Somatostatin receptor (Mus musculus) (UniProt P30935+O08858+P30875+P30873+P49660); experiment: Displacement of [125I]Tyr11-somatostatin-14 from mouse sst receptor in AtT20 cells; assay type: cell-based; conditions: concentration not given here
[10] = target: Adrenergic receptor alpha-1 (Rattus norvegicus) (UniProt P15823+P23944+P43140); experiment: Displacement of [3H]prazosin from rat alpha1 receptor in cerebral cortex; assay type: tissue-based; conditions: concentration not given here
[11] = target: Adenosine receptor A1 (Homo sapiens) (UniProt P30542); experiment: Displacement of [3H]DPCPX from human recombinant adenosine A1 receptor expressed in CHO cells at 1 uM; assay type: cell-based
[12] = target: Adenosine receptor A2a (Homo sapiens) (UniProt P29274); experiment: Displacement of [3H]CGS21680 from human recombinant adenosine A2A receptor expressed in HEK293 cells at 1 uM; assay type: cell-based
[13] = target: T1, Fatty-acid amide hydrolase 1 (Mus musculus, UniProt O08914); experiment: Inhibition of FAAH in mouse brain homogenate using [3Hethanolamine]AEA as substrate incubated for 20 mins prior to substrate addition measured after 15 mins by beta counting analysis; assay type: tissue-based
T1 sequence (O08914 whole entry): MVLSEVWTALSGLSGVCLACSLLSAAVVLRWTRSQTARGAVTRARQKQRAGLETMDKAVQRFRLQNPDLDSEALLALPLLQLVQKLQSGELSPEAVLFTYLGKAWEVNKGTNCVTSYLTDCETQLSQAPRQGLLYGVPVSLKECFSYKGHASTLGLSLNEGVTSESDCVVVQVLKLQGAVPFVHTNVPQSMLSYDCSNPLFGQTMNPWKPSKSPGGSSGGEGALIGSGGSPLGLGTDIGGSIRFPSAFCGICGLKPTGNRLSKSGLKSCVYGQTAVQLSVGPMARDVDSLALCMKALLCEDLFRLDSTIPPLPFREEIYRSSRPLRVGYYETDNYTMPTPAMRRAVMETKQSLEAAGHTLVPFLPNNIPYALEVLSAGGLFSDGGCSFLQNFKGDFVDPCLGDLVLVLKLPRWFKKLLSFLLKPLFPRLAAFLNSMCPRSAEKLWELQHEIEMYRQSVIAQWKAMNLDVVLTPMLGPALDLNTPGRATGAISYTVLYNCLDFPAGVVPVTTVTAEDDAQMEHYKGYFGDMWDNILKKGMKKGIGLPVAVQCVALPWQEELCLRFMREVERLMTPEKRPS

[14] = target: Substance-K receptor (Homo sapiens) (UniProt P21452); experiment: Displacement of [125I]NKA from human recombinant NK2 receptor expressed in CHO cells at 1 uM; assay type: cell-based
[15] = target: Sodium-dependent noradrenaline transporter (Homo sapiens) (UniProt P23975); experiment: Displacement of [3H]nisoxetine from human recombinant NE transporter expressed in CHO cells at 1 uM; assay type: cell-based
[16] = target: Type-1 angiotensin II receptor (Homo sapiens) (UniProt P30556); experiment: Displacement of [125I][Sar1,Ile8]-AT II from human recombinant AT1 receptor expressed in HEK293 cells at 1 uM; assay type: cell-based
[17] = target: C-X-C chemokine receptor type 2 (Homo sapiens) (UniProt P25025); experiment: Displacement of [125I]IL-8 from human recombinant CXCR2 receptor expressed in HEK293 cells at 1 uM; assay type: cell-based
[18] = target: Vasopressin V1a receptor (Homo sapiens) (UniProt P37288); experiment: Displacement of [3H]AVP from human recombinant V1a receptor expressed in CHO cells at 1 uM; assay type: cell-based
Rattus norvegicus [19] = organism: Rattus norvegicus; experiment: Displacement of [35S]TBPS from rat GABA gated chloride channel in cerebral cortex; assay type: tissue-based; conditions: concentration not given here
[20] = target: Beta-1 adrenergic receptor (Homo sapiens) (UniProt P08588); experiment: Displacement of [3H](-)CGP12177 from human recombinant beta1 receptor expressed in HEK293 cells at 1 uM; assay type: cell-based
Rattus norvegicus [21] = organism: Rattus norvegicus; experiment: Displacement of [3H]GABA from rat GABA in cerebral cortex; assay type: tissue-based; conditions: concentration not given here
[22] = target: 5-hydroxytryptamine receptor 2A (Homo sapiens) (UniProt P28223); experiment: Displacement of [3H]Ketanserin from human recombinant 5-HT2A receptor expressed in HEK293 cells at 1 uM; assay type: cell-based
[23] = target: Muscarinic acetylcholine receptor M2 (Homo sapiens) (UniProt P08172); experiment: Displacement of [3H]AF-DX384 from human recombinant muscarinic M2 receptor expressed in CHO cells at 1 uM; assay type: cell-based
[24] = target: Muscarinic acetylcholine receptor M1 (Homo sapiens) (UniProt P11229); experiment: Displacement of [3H]pirenzepine from human recombinant muscarinic M1 receptor expressed in CHO cells at 1 uM; assay type: cell-based
[25] = target: Neuropeptide Y receptor type 2 (Homo sapiens) (UniProt P49146); experiment: Displacement of [125I]peptideYY from human Y2 receptor in KAN-TS cells; assay type: cell-based; conditions: concentration not given here
Rattus norvegicus [26] = organism: Rattus norvegicus; experiment: Displacement of [125I]a-dendrotoxin from rat K+ V channel in cerebral cortex; assay type: tissue-based; conditions: concentration not given here
[27] = target: Cholecystokinin receptor type A (Homo sapiens) (UniProt P32238); experiment: Displacement of [125I]CCK-8 from human recombinant CCKA receptor expressed in CHO cells at 1 uM; assay type: cell-based
[28] = target: Endothelin-1 receptor (Homo sapiens) (UniProt P25101); experiment: Displacement of [125I]endothelin-1 from human recombinant ETA receptor expressed in CHO cells at 1 uM; assay type: cell-based
[29] = target: D(2) dopamine receptor (Homo sapiens) (UniProt P14416); experiment: Displacement of [3H]spiperone from human recombinant D2S receptor expressed in HEK293 cells at 1 uM; assay type: cell-based
CHO = experiment: Displacement of [3H]DADLE from human recombinant delta2 opioid receptor expressed in CHO cells at 1 uM; assay type: cell-based
[30] = target: 5-hydroxytryptamine receptor 7 (Homo sapiens) (UniProt P34969); experiment: Displacement of [3H]LSD from human recombinant 5-HT7 receptor expressed in CHO cells at 1 uM; assay type: cell-based
[31] = target: 5-hydroxytryptamine receptor 6 (Homo sapiens) (UniProt P50406); experiment: Displacement of [3H]LSD from human recombinant 5-HT6 receptor expressed in CHO cells at 1 uM; assay type: cell-based
[32] = target: Sodium-dependent dopamine transporter (Homo sapiens) (UniProt Q01959); experiment: Displacement of [3H]BTCP from human recombinant DA transporter expressed in CHO cells at 1 uM; assay type: cell-based
[33] = target: Galanin receptor type 2 (Homo sapiens) (UniProt O43603); experiment: Displacement of [125I]Galanin from human recombinant GAL2 receptor expressed in CHO cells at 1 uM; assay type: cell-based
[34] = target: Neuromedin-K receptor (Homo sapiens) (UniProt P29371); experiment: Displacement of [3H]SR142801 from human recombinant NK3 receptor expressed in CHO cells at 1 uM; assay type: cell-based
[35] = target: Mu-type opioid receptor (Homo sapiens) (UniProt P35372); experiment: Displacement of [3H]DAMGO from human recombinant mu opioid receptor expressed in HEK293 cells at 1 uM; assay type: cell-based
[36] = target: 5-hydroxytryptamine receptor 1B (Rattus norvegicus) (UniProt P28564); experiment: Displacement of [125I]CYP from rat 5-HT1B receptor in cerebral cortex; assay type: tissue-based; conditions: concentration not given here
[37] = target: Sodium-dependent serotonin transporter (Homo sapiens) (UniProt P31645); experiment: Displacement of [3H]imipramine from human recombinant 5-HT transporter expressed in CHO cells at 1 uM; assay type: cell-based
[38] = target: Histamine H1 receptor (Homo sapiens) (UniProt P35367); experiment: Displacement of [3H]pyrilamine from human recombinant H1 receptor expressed in HEK293 cells at 1 uM; assay type: cell-based
[39] = target: 5-hydroxytryptamine receptor 3A (Homo sapiens) (UniProt P46098); experiment: Displacement of [3H]BRL43694 from human recombinant 5-HT3 receptor expressed in CHO cells at 1 uM; assay type: cell-based
Rattus norvegicus [40] = organism: Rattus norvegicus; experiment: Displacement of [3H](-)D888 from rat L-type Ca2+ channel verapamil site in cerebral cortex; assay type: tissue-based; conditions: concentration not given here
[41] = target: 5-hydroxytryptamine receptor 1A (Homo sapiens) (UniProt P08908); experiment: Displacement of [3H]8-OH-DPAT from human recombinant 5-HT1A receptor expressed in HEK293 cells at 1 uM; assay type: cell-based
[42] = target: B2 bradykinin receptor (Homo sapiens) (UniProt P30411); experiment: Displacement of [3H]bradykinin from human recombinant B2 receptor expressed in CHO cells at 1 uM; assay type: cell-based
[43] = target: Adrenergic receptor alpha-2 (Rattus norvegicus) (UniProt P22086+P19328+P22909); experiment: Displacement of [3H]RX821002 from rat alpha2 receptor in cerebral cortex; assay type: tissue-based; conditions: concentration not given here
Rattus norvegicus [44] = organism: Rattus norvegicus; experiment: Displacement of [3H]flunitrazepam from rat central BZD receptor in cerebral cortex; assay type: tissue-based; conditions: concentration not given here
Rattus norvegicus [45] = organism: Rattus norvegicus; experiment: Displacement of [3H]batrachotoxinin from rat Na+ channel site 2 in cerebral cortex; assay type: tissue-based; conditions: concentration not given here
[46] = target: Beta-2 adrenergic receptor (Homo sapiens) (UniProt P07550); experiment: Displacement of [3H](-)CGP12177 from human recombinant beta2 receptor expressed in CHO cells at 1 uM; assay type: cell-based
[47] = target: D(1A) dopamine receptor (Homo sapiens) (UniProt P21728); experiment: Displacement of [3H]SCH23390 from human recombinant D1 receptor expressed in CHO cells at 1 uM; assay type: cell-based
[48] = target: Vasoactive intestinal polypeptide receptor 1 (Homo sapiens) (UniProt P32241); experiment: Displacement of [125I]VIP from human recombinant VPAC1 receptor expressed in CHO cells at 1 uM; assay type: cell-based
[49] = target: Melanocortin receptor 4 (Homo sapiens) (UniProt P32245); experiment: Displacement of [125I]NDP-a-MSH from human recombinant MC4 receptor expressed in CHO cells at 1 uM; assay type: cell-based
[50] = target: Melatonin receptor type 1A (Homo sapiens) (UniProt P48039); experiment: Displacement of [125I]2-iodomelatonin from human recombinant MT1 receptor expressed in CHO cells at 1 uM; assay type: cell-based
[51] = target: Kappa-type opioid receptor (Rattus norvegicus) (UniProt P34975); experiment: Displacement of [3H]U69593 from rat recombinant kappa opioid receptor expressed in CHO cells at 1 uM; assay type: cell-based

Melatonin receptor type 1A (Homo sapiens), sequence (P48039 whole entry): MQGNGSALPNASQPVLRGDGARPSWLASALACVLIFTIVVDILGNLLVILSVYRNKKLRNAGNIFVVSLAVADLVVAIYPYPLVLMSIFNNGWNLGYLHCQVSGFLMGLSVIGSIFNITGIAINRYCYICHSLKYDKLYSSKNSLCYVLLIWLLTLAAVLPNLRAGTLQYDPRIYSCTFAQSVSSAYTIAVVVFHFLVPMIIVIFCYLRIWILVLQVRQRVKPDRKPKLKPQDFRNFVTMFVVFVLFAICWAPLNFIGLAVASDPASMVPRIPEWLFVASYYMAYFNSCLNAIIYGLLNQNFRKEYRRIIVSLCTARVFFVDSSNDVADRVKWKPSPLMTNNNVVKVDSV
C-X-C chemokine receptor type 2 (Homo sapiens), sequence (P25025 whole entry): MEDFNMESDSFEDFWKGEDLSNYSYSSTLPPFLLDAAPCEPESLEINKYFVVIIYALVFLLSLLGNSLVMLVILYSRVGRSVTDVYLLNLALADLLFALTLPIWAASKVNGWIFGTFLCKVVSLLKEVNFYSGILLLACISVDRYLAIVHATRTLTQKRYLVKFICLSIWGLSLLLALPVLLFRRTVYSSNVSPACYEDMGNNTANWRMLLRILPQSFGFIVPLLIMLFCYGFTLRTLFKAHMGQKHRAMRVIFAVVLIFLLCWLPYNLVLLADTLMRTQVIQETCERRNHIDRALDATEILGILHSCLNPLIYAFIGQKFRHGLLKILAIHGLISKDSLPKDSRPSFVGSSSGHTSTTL
Histamine H1 receptor (Homo sapiens), sequence (P35367 whole entry): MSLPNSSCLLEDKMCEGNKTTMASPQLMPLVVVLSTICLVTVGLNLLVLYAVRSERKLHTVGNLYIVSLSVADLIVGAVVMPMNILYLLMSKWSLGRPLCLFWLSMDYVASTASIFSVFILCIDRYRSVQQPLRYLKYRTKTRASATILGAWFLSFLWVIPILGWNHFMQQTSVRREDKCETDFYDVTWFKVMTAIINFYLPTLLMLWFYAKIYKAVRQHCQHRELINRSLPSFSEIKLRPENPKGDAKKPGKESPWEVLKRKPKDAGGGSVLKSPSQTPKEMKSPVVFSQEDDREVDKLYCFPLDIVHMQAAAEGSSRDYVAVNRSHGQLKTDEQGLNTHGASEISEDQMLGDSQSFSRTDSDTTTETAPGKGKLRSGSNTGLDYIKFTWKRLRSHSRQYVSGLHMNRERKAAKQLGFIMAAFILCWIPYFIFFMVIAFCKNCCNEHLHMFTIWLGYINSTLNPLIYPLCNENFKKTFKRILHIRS
Neuromedin-K receptor (Homo sapiens), sequence (P29371 whole entry): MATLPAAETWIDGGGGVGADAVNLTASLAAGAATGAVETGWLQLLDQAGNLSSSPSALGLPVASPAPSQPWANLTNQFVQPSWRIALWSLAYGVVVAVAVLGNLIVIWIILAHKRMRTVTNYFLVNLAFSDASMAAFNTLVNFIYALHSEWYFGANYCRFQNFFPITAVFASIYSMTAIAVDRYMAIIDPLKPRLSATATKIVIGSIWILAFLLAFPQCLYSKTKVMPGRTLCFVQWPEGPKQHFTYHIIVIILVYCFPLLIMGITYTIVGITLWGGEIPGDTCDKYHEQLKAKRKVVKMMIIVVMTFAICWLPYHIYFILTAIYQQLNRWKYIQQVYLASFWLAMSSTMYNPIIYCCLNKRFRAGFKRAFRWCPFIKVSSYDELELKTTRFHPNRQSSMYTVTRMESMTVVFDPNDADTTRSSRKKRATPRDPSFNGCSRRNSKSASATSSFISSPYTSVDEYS
D(2) dopamine receptor (Homo sapiens), sequence (P14416 whole entry): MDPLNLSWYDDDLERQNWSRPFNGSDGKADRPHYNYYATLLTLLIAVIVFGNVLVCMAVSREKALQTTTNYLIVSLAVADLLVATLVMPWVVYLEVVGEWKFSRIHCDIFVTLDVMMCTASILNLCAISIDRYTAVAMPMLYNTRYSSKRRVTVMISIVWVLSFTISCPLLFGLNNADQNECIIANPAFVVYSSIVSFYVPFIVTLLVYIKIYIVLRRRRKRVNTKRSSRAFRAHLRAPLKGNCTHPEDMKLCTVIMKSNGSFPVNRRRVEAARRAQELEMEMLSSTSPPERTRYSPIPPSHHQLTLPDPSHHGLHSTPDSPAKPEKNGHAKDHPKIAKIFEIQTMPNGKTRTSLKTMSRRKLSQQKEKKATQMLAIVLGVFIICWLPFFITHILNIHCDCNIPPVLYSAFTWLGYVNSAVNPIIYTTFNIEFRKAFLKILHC
Vasopressin V1a receptor (Homo sapiens), sequence (P37288 whole entry, looked up): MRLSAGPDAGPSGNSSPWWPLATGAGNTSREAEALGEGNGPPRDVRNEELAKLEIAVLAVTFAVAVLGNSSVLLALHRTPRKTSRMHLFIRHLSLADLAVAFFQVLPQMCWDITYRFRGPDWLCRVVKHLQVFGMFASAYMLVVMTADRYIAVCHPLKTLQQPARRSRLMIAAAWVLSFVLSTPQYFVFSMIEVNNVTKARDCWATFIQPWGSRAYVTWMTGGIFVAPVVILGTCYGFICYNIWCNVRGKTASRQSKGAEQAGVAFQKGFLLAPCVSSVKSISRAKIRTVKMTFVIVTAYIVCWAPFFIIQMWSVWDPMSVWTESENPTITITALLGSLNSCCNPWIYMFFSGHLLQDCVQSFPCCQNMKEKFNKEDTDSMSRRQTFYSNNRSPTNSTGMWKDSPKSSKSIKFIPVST
D(1A) dopamine receptor (Homo sapiens), sequence (P21728 whole entry): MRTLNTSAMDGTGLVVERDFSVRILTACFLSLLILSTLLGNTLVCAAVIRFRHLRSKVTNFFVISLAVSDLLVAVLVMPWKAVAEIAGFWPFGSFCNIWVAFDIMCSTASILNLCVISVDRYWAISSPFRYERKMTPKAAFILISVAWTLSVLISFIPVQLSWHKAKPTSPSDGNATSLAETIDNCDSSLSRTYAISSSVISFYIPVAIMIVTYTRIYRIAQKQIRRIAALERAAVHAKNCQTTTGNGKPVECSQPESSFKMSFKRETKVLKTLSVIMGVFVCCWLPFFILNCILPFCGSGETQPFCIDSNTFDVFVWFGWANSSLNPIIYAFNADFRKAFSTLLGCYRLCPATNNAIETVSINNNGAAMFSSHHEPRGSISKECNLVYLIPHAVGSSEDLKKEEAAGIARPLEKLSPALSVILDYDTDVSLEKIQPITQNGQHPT
5-hydroxytryptamine receptor 2A (Homo sapiens), sequence (P28223 whole entry): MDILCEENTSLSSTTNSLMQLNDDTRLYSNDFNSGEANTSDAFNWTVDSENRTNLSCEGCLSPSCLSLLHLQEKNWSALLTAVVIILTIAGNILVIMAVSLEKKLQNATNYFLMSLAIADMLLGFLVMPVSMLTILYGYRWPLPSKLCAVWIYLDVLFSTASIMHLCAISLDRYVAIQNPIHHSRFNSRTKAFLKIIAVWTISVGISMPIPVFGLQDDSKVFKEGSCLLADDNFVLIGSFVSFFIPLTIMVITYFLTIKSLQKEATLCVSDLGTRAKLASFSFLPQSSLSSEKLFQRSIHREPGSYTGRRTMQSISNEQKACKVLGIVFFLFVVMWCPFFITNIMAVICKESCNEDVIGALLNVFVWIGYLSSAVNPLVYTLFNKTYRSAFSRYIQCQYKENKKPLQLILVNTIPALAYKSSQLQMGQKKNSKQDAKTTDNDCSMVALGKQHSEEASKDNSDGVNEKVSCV
Melanocortin receptor 4 (Homo sapiens), sequence (P32245 whole entry): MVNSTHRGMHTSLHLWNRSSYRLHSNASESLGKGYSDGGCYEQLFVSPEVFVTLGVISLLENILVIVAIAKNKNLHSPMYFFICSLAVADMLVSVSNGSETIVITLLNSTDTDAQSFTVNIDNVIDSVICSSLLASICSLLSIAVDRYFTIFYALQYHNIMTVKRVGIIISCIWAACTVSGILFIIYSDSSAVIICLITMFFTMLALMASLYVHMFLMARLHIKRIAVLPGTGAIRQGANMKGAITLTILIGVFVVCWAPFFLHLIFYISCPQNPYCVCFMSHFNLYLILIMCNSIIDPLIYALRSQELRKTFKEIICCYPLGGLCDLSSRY
Muscarinic acetylcholine receptor M2 (Homo sapiens), sequence (P08172 whole entry): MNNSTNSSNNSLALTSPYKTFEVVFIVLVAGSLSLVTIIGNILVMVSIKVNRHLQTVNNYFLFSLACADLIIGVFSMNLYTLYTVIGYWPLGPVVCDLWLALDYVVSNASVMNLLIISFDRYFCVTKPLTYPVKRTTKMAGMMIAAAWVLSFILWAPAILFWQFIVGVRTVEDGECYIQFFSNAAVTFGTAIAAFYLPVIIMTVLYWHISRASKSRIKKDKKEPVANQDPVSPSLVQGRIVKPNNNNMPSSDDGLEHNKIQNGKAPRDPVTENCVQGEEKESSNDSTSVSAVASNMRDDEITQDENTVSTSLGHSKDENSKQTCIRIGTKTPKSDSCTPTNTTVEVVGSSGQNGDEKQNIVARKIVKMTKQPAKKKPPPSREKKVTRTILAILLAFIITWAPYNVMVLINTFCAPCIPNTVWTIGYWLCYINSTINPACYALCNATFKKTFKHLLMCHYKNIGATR
Cannabinoid receptor 1 (Homo sapiens), sequence (P21554 whole entry): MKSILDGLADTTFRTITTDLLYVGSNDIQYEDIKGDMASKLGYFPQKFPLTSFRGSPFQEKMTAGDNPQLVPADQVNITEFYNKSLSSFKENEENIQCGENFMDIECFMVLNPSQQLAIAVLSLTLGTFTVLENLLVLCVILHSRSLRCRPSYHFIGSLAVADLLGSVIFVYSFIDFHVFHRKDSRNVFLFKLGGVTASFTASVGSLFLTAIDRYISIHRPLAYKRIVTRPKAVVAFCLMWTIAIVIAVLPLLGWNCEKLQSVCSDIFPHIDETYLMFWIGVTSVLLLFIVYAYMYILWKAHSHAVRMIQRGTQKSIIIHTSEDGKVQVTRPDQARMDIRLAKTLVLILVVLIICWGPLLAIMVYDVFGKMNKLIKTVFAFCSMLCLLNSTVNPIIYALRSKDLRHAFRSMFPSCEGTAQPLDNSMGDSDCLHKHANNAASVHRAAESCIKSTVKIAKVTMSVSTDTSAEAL

Work on CCCCCCCOc1ccc(NC(=O)Oc2cccc(N3CCNCC3)c2)cc1 yielded an inhibition [1] of 7%, an inhibition [2] of 1% and an inhibition [3] of 27%. The inhibition [4] was 27%, the inhibition [5] was 35% and the inhibition [6] was 4%. The inhibition [7] was 91%, the inhibition [8] was 30% and the inhibition [9] was -2%. For the same compound, the inhibition [10] was 7%, the inhibition [11] was 9% and the inhibition [12] was 3%. It also gave a Ki [13] greater than 500 nM, an inhibition [14] of -10% and an inhibition [15] of 52%. It also gave an inhibition [16] of -1%, an inhibition [17] of -5% and an inhibition [18] of 17%. The inhibition (Rattus norvegicus [19]) was 2%, the inhibition [20] was 66% and the inhibition (Rattus norvegicus [21]) was 0%. For the same compound, the inhibition [22] was 96%, the inhibition [23] was 23% and the inhibition [24] was 28%. For the same compound, the inhibition [25] was -9%, the inhibition (Rattus norvegicus [26]) was -5% and the inhibition [27] was 1%. For the same compound, the inhibition [28] was 14%, the inhibition [29] was 9% and the inhibition (CHO) was 61%. For the same compound, the inhibition [30] was 48%, the inhibition [31] was 42% and the inhibition [32] was 103%. It also gave an inhibition [33] of -10%, an inhibition [34] of -7% and an inhibition [35] of 77%. It also gave an inhibition [36] of 96%, an inhibition [37] of 36% and an inhibition [38] of 22%. It also gave an inhibition [39] of 7%, an inhibition (Rattus norvegicus [40]) of 30% and an inhibition [41] of 97%. The inhibition [42] was -5%, the inhibition [43] was 52% and the inhibition (Rattus norvegicus [44]) was 16%. For the same compound, the inhibition (Rattus norvegicus [45]) was 32%, the inhibition [46] was 19% and the inhibition [47] was 70%. The inhibition [48] was -1%, the inhibition [49] was 3% and the inhibition [50] was -6%. For the same compound, the inhibition [51] was 57%.

NC(=O)c1ccn(-c2cccc(N3CCN(C(=O)NCCCCCCc4ccccc4)CC3)c2)c1 showed a Ki [13] greater than 500 nM.
